Data published in patent US20030175216A1, “Oral antimicrobial and anti-odor compositions” (Innoscent LTD., priority 2001, published 2003).

Columns and labels:
[1] = system: odor formation in freshly-taken morning saliva; experiment: Inhibition of in vitro odor formation by higher alcohols (saliva in decarboxylase medium); type: cell-based
Method: A series of test tubes were prepared, each containing 5 ml of decarboxylase medium (0.5% peptone, 0.3% yeast extract, 0.1% dextrose and 0.02% bromocresol purple). […] The tubes were incubated at 37° C. for three days. Following incubation, the odor was determined by a panel of odor judges, using the following semi-quantitative scale 0=no odor 1=very slight odor […] The higher alcohols tested were alkanols of chain length C8, C9, C10, C11, C12, C14, C16 and C18.

E. coli = experiment: Agar plate zone of growth inhibition; type: cell-based, Escherichia coli; settings: for inhibition of E. coli (summary): 1% in 100% ethanol
Method: (§1) The higher alcohols were tested for antimicrobial activity against Gram positive bacteria (Streptococcus mutans), Gram negative bacteria (Pseudomonas spp., Escherichia coli, […]) and the yeast Candida albicans. […] Five microliters of the higher alcohol solutions were placed on the surface of a rich (Brain-heart infusion) agar plate immediately after seeding with a mono-specific bacterial or yeast culture. The plates were incubated for 24-48 hours, and, following further microbial proliferation, the diameters of the zones of growth inhibition were measured (results expressed in centimeters).

S. mutans = experiment: Agar plate zone of growth inhibition; type: cell-based, Streptococcus mutans; settings: for inhibition of S. mutans (summary): 1% in 100% ethanol
Method: as §1, with “centimeters). In a further set of experiments, the effect of solvent type on the antimicrobial activity of the C9 alcohol was investigated. […] These solutions were tested for antimicrobial activity towards three microorganisms (M. lysodeikticus, S. mutans and Corynebacterium xerosis) using the same assay as described above. The relationship of the concentration of the C9 alcohol to its antimicrobial activity was also investigated. […] These solutions were tested in the assay described above for their ability to inhibit the growth of the bacteria M. lysodeikticus and S. mutans.” for “centimeters).”

Pseudomonas aeruginosa = experiment: Agar plate zone of growth inhibition; type: cell-based
Method: as §1

E. faecalis = experiment: Agar plate zone of growth inhibition; type: cell-based; settings: 5 μl of 1% solution (C8-C12 in 70% ethanol, C14-C18 in 100% ethanol)
Method: as §1

C. albicans = experiment: Agar plate zone of growth inhibition; type: cell-based, Candida albicans; settings: opaque inhibition zone on the agar plate
Method: as §1

[2] = system: bacteria and yeast tested; experiment: Agar plate growth inhibition, summary statements over the test microorganisms; type: cell-based; settings: Table VI microorganisms
Method: as §1, with “centimeters). In a further set of experiments, the effect of solvent type on the antimicrobial activity of the C9 alcohol was investigated. […] These solutions were tested for antimicrobial activity towards three microorganisms (M. lysodeikticus, S. mutans and Corynebacterium xerosis) using the same assay as described above. The relationship of the concentration of the C9 alcohol to its antimicrobial activity was also investigated. […] These solutions were tested in the assay described above for their ability to inhibit the growth of the bacteria M. lysodeikticus and S. mutans.” for “centimeters).”

[3] = 10 μl of 1% solution, scale 0-5
[4] = 20 μl of 1% solution, scale 0-5
[5] = 30 μl of 1% solution, scale 0-5
[6] = 40 μl of 1% solution, scale 0-5
[7] = 50 μl of 1% solution (C8-C12 in 70% ethanol, C14-C18 in 100% ethanol) in 5 ml medium + 200 μl saliva, 3 days 37° C., scale 0 no odor to 5 extremely foul
[8] = 50 μl of 1% solution, scale 0-5
[9] = 5 μl of 1% solution (C8-C12 in 70% ethanol, C14-C18 in 100% ethanol)
[10] = 70% ethanol alone, 100 μl, scale 0-5
[11] = 70% ethanol alone, 200 μl, scale 0-5

| SMILES | Odor Score (Judge 1) [1, 3] | Odor Score (Judge 2) [1, 3] | Odor Score (Judge 1) [1, 4] | Odor Score (Judge 2) [1, 4] | Odor Score (Judge 1) [1, 5] | Odor Score (Judge 2) [1, 5] | Odor Score (Judge 1) [1, 6] | Odor Score (Judge 2) [1, 6] | Odor Score (Judge 1) [1, 7] | Odor Score (Judge 2) [1, 8] | diameter of zone of growth inhibition, E. coli (E. coli; [9]) [centimeters] | diameter of zone of growth inhibition, S. mutans (S. mutans; [9]) | further results |
| --- | --- | --- | --- | --- | --- | --- | --- | --- | --- | --- | --- | --- | --- |
| CCCCCCCCCCCCCCCCO [C16] | 5 | 5 | 5 | 5 | 5 | 5 | 5 | 5 | 4 | 4 | 0.7 | + − | inhibition of E. coli (summary) (E. coli): moderate inhibition; inhibition of S. mutans (summary) (S. mutans): not of S. mutans |
| CCO [Ethanol, ethanol, reference compound] |  |  |  |  |  |  |  |  |  |  |  |  | Odor Score (Judge 1) [1, 10]: 5; Odor Score (Judge 2) [1, 10]: 4.5; Odor Score (Judge 1) [1, 11]: 4; Odor Score (Judge 2) [1, 11]: 4.5; diameter of zone of growth inhibition, Pseudomonas aeruginosa (Pseudomonas aeruginosa; 5 μl of 70% Ethanol alone): + −; diameter of zone of growth inhibition, E. coli (E. coli; 5 μl of 100% Ethanol alone): 1.0 centimeters; diameter of zone of growth inhibition, S. mutans (S. mutans; 5 μl of 100% Ethanol alone): + − |
| CCCCCCCCO [C8] | 4 | 3 | 3 | 3 | 3 | 3 | 4 | 3 | 4 | 4 |  |  | diameter of zone of growth inhibition, E. faecalis (E. faecalis): + −; diameter of zone of growth inhibition, Pseudomonas aeruginosa (Pseudomonas aeruginosa; [9]): 0.5 centimeters; inhibition of the yeast C. albicans (summary) (C. albicans): only partial inhibition |
| CCCCCCCCCCCCCCCC[n+]1ccccc1 [CPC, cetylpyridinium chloride, reference compound] | 2 | 2.5 | 0 | 0 |  |  |  |  |  |  |  |  | Odor Score (Judge 1) ([1]; 5 μl of 1% solution, scale 0-5): 4; Odor Score (Judge 2) ([1]; 5 μl of 1% solution, scale 0-5): 4 |
| N=C(NCCCCCCNC(=N)NC(=N)Nc1ccc(Cl)cc1)NC(=N)Nc1ccc(Cl)cc1.O=C(O)[C@H](O)[C@@H](O)[C@H](O)[C@H](O)CO.O=C(O)[C@H](O)[C@@H](O)[C@H](O)[C@H](O)CO [CHX, chlorhexidine digluconate, reference compound] | 2 | 1 | 0 | 0 | 0 | 0 | 0 | 0 |  |  |  |  | Odor Score (Judge 1) ([1]; 5 μl of 1% solution, scale 0-5): 4; Odor Score (Judge 2) ([1]; 5 μl of 1% solution, scale 0-5): 4.5 |
| CCCCCCCCCCCCCCO [C14] | 5 | 5 | 5 | 5 | 5 | 5 | 5 | 5 | 4 | 4 | 0.9 | 1.0 centimeters | effect on microbial growth (summary) [2]: inhibit microbial growth |
| CCCCCCCCCCCCCCCCCCO [C18] | 5 | 5 | 5 | 5 | 5 | 5 | 4 | 4 | 3.5 | 4 | 0.8 | + − | inhibition of E. coli (summary) (E. coli): moderate inhibition; inhibition of S. mutans (summary) (S. mutans): not of S. mutans |
